Experimental data from US20110217300A1, “Quinazolinone Compounds and Methods of Use Thereof” (priority 2007, published 2011).

What was measured:
Assay in all cases: MTS cell viability assay
Type in all cases: cell-based
[1] = tested on: WIDR; settings: Homo sapiens, Colorectal adenocarcinoma
Description: (§1) Cell viability was determined by measuring the activity of dehydrogenase enzymes in metabolically active cells using a tetrazolium compound, MTS. The assay was performed as described in Promega Technical Bulletin No. 169 (CellTiter 96 Aqueous Non-Radioactive Cell Proliferation Assay). Two human cancer cell lines were assayed (see, Table 1). Cells were maintained at 37° C. and 5% CO2 in DMEM media (4.5 g/L glucose) supplemented with 10% heat-inactivated FBS, 10 mM L-glutamine, and 10 mM Hepes pH 7.5. Briefly, cells were seeded in 96-well plates as set forth in Table 1 and incubated for 16-24 hours. Candidate compounds were serially diluted in DMSO, further diluted in cell culture media, and then added to cells (final DMSO concentration of 0.33%). Cells were incubated in the presence of candidate compound for 72 hours. MTS stock solution (MTS 2 gm/L, PMS […] in PBS) was added to the cells (final concentration MTS […] and PMS 7.67 mg/L) and incubated for 4 hours. SDS was added to a final concentration of 1.4% and absorbance at 490 nm was measured within two hours using a plate reader. […] GI50 values were given in Table 2 for the compounds listed. The Compound Numbers in Table 2 correspond to the numbers listed parenthetically in the Example titles. Where multiple measurements were made by different technicians, both values are given.
(§2) Cell viability was determined for N-(3-amino-propyl)-3-chloro-N—[(R)-1-(7-chloro-4-oxo-3-phenylamino-3,4-dihydro-quinazolin-2-yl)-but-3-ynyl]-2-fluoro-benzamide (compound I of Table 2). The cell viability assay of Example 105 was used. GI50 was determined using a variety of cell lines. Cells were plated at 100-5000 cells per well. At least 2 replicates were performed. Where multiple measurements were made by different technicians, both values are given.

[2] = tested on: HEP-G2; settings: Homo sapiens, HepG2, Hepatocellular carcinoma
Description: as §1, §2

[3] = tested on: NCI-H441; settings: Lung Papillary Adenocarcinoma
Description: as §1, §2

[4] = tested on: A375; settings: skin
Description: as §1, §2

[5] = tested on: Kato III; settings: Homo sapiens, Gastric Carcinoma
Description: as §1, §2

[6] = tested on: NCI-H661; settings: Homo sapiens, Large cell Lung Cancer
Description: as §1, §2

[7] = tested on: PANC-1; settings: Homo sapiens, Pancreas epithelioid carcinoma
Description: as §1, §2

[8] = tested on: WM-266.4; settings: Homo sapiens, WM 266-4, Melanoma
Description: as §1, §2

[9] = tested on: HEP-3B; settings: Homo sapiens, Hep3B, liver
Description: as §1, §2

[10] = tested on: AN3CA; settings: Homo sapiens, AN3-CA, endometrial
Description: as §1, §2

[11] = tested on: KG-1a; settings: Homo sapiens, AML
Description: as §1, §2

[12] = tested on: SNU-16; settings: Homo sapiens, Gastric Carcinoma
Description: as §1, §2

[13] = tested on: K562; settings: CML
Description: as §1, §2

[14] = tested on: HPAF-II; settings: Homo sapiens, pancreas
Description: as §1, §2

[15] = tested on: SW780; settings: Homo sapiens, bladder
Description: as §1, §2

[16] = tested on: NCI-H526; settings: Homo sapiens, Lung carcinoma, variant small cell lung cancer
Description: as §1, §2

[17] = tested on: A-375; settings: Homo sapiens, Malignant melanoma
Description: as §1, §2

[18] = tested on: SKMES-1; settings: Homo sapiens, SK-MES-1, Squamous cell carcinoma
Description: as §1, §2

[19] = tested on: DU145; settings: prostate
Description: as §1, §2

[20] = tested on: SW480; settings: colon
Description: as §1, §2

[21] = tested on: THP-1; settings: Homo sapiens, Acute monocytic leukemia
Description: as §1, §2

[22] = tested on: MIA-PaCa2; settings: Homo sapiens, MIA PaCa-2, Pancreas
Description: as §1, §2

[23] = tested on: HCT-15; settings: Homo sapiens, colon
Description: as §1, §2

[24] = tested on: NTERA-2 c1. D1; settings: NTERA2, Testis pluripotent embryonal carcinoma
Description: as §1, §2

[25] = tested on: 786-O; settings: Homo sapiens, 786-0, kidney
Description: as §1, §2

[26] = tested on: RKO; settings: Homo sapiens, Colon Carcinoma
Description: as §1, §2

[27] = tested on: CAKI-2; settings: Homo sapiens, kidney
Description: as §1, §2

[28] = tested on: LS174T; settings: Homo sapiens, Colorectal Carcinoma
Description: as §1, §2

[29] = tested on: HT-1080; settings: Homo sapiens, Fibrosarcoma
Description: as §1, §2

[30] = tested on: KG-1; settings: Homo sapiens, AML
Description: as §1, §2

[31] = tested on: CALU-6; settings: Homo sapiens, lung
Description: as §1, §2

[32] = tested on: RT-112; settings: Human urinary bladder cell carcinoma
Description: as §1, §2

[33] = tested on: CCS292; settings: Clear cell Sarcoma
Description: as §1, §2

With `C#CC[C@H](c1nc2cc(Cl)ccc2c(=O)n1Nc1ccccc1)N(CCCN)C(=O)c1cccc(Cl)c1F` [Compound 1, N-(3-Amino-propyl)-3-chloro-N—[(R)-1-(7-chloro-4-oxo-3-phenylamino-3,4-dihydro-quinazolin-2-yl)-but-3-ynyl]-2-fluoro-benzamide] the GI50 [1] was 783 nM, the GI50 [2] was 3840 nM and the GI50 ([3]; Homo sapiens, NCI-H441, NCI-H441) was 3340 nM. For the same compound, the GI50 ([3]; NCI-H441, listed as I) was 2250 nM, the GI50 ([4]; A375, listed as I) was 752 nM and the GI50 ([4]; Homo sapiens, A-375, A375) was 405 nM. For the same compound, the GI50 [5] was 202 nM, the GI50 [6] was 109 nM and the GI50 [7] was 1170 nM. It also gave a GI50 [8] of 2300 nM, a GI50 [9] of 773 nM and a GI50 [10] of 201 nM. For the same compound, the GI50 [11] was 3200 nM, the GI50 [12] was 136 nM and the GI50 ([13]; Homo sapiens, K562, K562) was 133 nM. For the same compound, the GI50 ([13]; K562, listed as I) was 184 nM, the GI50 [14] was 2060 nM and the GI50 [15] was 220 nM. It also gave a GI50 [16] of 125 nM, a GI50 [17] of 766 nM and a GI50 [18] of 1000 nM. For the same compound, the GI50 ([19]; DU145, listed as I) was 304 nM, the GI50 ([19]; Homo sapiens, DU-145, DU145) was 303 nM and the GI50 ([20]; Homo sapiens, SW480, SW480) was 1270 nM. For the same compound, the GI50 ([20]; SW480, listed as I) was 1220 nM, the GI50 [21] was 226 nM and the GI50 [22] was 259 nM. For the same compound, the GI50 [23] was 3020 nM, the GI50 [24] was 63 nM and the GI50 [25] was 1740 nM. For the same compound, the GI50 [26] was 110 nM, the GI50 [27] was 4240 nM and the GI50 [28] was 796 nM. For the same compound, the GI50 [29] was 149 nM, the GI50 [30] was 1720 nM and the GI50 [31] was 105 nM. For the same compound, the GI50 [32] was 53 nM and the GI50 [33] was 833 nM.
